# In ChEMBL document CHEMBL1125092, “Nonneurotoxic tetralin and indan analogues of 3,4-(methylenedioxy)amphetamine (MDA)” (J Med Chem, 1990):
# Tests used:
# Rattus norvegicus [1] = assay: Tested for stimulus generation in rats trained to discriminate LSD from saline at a dose 2.34 (umol/kg) (number of animals = 10); format: functional
# Rattus norvegicus [2] = assay: Monoamine levels in rat brain were evaluated after subcutaneous administration of 40 mg/kg for DA; format: functional
# Rattus norvegicus [3] = assay: Monoamine levels in rat hippocampus were evaluated after subcutaneous administration of 40 mg/kg for 5-HIAA; format: functional
# Rattus norvegicus [4] = assay: Percentage of animals disrupted was determined in groups of MDMA trained rats at a dose 4.68 (uM/kg), (no.of animals=8); format: functional
# Rattus norvegicus [5] = organism: Rattus norvegicus; assay: Bmax for compound was evaluated in rat cortical homogenate; format: tissue-based
# Rattus norvegicus [6] = assay: Monoamine levels in rat brain were evaluated after subcutaneous administration of 40 mg/kg for HVA; format: functional
# Rattus norvegicus [7] = assay: Percentage of animals disrupted was determined in groups of MDMA trained rats at a dose 2.34 (uM/kg), (no.of animals=10); format: functional
# Rattus norvegicus [8] = assay: Monoamine levels in rat brain were evaluated after subcutaneous administration of 40 mg/kg for 5-HT; format: functional
# Rattus norvegicus [9] = assay: Monoamine levels in rat hippocampus were evaluated after subcutaneous administration of 40 mg/kg for 5-HT; format: functional
# Rattus norvegicus [10] = assay: Monoamine levels in rat brain were evaluated after subcutaneous administration of 40 mg/kg for DOPAC; format: functional
# Rattus norvegicus [11] = assay: Tested for stimulus generation in rats trained to discriminate LSD from saline at a dose 4.68 (umol/kg),(number of animals = 15); format: functional
# Rattus norvegicus [12] = assay: Percentage of animals disrupted was determined in groups of LSD trained rats at a dose of 1.17(uM/kg)(no. of animals =16); format: functional
# Rattus norvegicus [13] = organism: Rattus norvegicus; assay: Bmax for compound was evaluated in rat hippocampal homogenate; format: tissue-based; settings: Hippocampus
# Rattus norvegicus [14] = assay: Tested for stimulus generation in rats trained to discriminate +/-MDMA from saline at 2.34 (umol/kg), (number of animals = 10); format: functional
# Rattus norvegicus [15] = assay: Hallucinogenic property was determined in groups of LSD trained rats and percentage of animals disrupted was reported at a dose 0.59(uM/kg), (number of animals = 11); format: functional
# Rattus norvegicus [16] = assay: Tested for stimulus generation in rats trained to discriminate +/-MDMA from saline at 9.36 (umol/kg), (number of animals = 10); format: functional
# [17] = molecular target: T1, Sodium-dependent serotonin transporter (Rattus norvegicus, UniProt P31652); assay: Binding affinity was determined towards serotonin uptake site in presence of [3H]paroxetine radioligand in rat hippocampal homogenate; format: tissue-based, Hippocampus
# Rattus norvegicus [18] = assay: Percentage of animals disrupted was determined in groups of LSD trained rats at a dose of 2.34(uM/kg) (no. of animals = 10); format: functional
# Rattus norvegicus [19] = assay: Tested for stimulus generation in rats trained to discriminate +/-MDMA from saline at 1.17 (umol/kg), (number of animals = 8); format: functional
# Rattus norvegicus [20] = assay: Monoamine levels in rat brain were evaluated after subcutaneous administration of 40 mg/kg for NE; format: functional
# Rattus norvegicus [21] = assay: Monoamine levels in at hippocampus were evaluated after subcutaneous administration of 40 mg/kg for NE; format: functional
# Rattus norvegicus [22] = assay: Percentage of animals disrupted was determined in groups of LSD trained rats at a dose of 9.36(uM/kg) (no. of animals =6); format: functional
# Rattus norvegicus [23] = assay: Tested for stimulus generation in rats trained to discriminate LSD from saline at a dose 0.59(uM/kg), (number of animals = 11); format: functional
# Rattus norvegicus [24] = assay: Monoamine levels in rat brain were evaluated after subcutaneous administration of 40 mg/kg for 5-HIAA; format: functional
# Rattus norvegicus [25] = assay: Percentage of animals disrupted was determined in groups of MDMA trained rats at a dose 9.36 (uM/kg), (no.of animals=10); format: functional
# Rattus norvegicus [26] = assay: Tested for stimulus generation in rats trained to discriminate LSD from saline at a dose 1.17 (umol/kg) (number of animals =16); format: functional
# Rattus norvegicus [27] = assay: Tested for stimulus generation in rats trained to discriminate +/-MDMA from saline at 4.68 (umol/kg), (number of animals = 8); format: functional
# [28] = molecular target: T1, Sodium-dependent serotonin transporter; assay: Binding affinity was determined towards serotonin uptake site in presence of [3H]paroxetine radioligand in rat brain cortical homogenate; format: tissue-based
# Rattus norvegicus [29] = assay: Percentage of animals disrupted was determined in groups of LSD trained rats at a dose of 4.68(uM/kg) (no. of animals = 15); format: functional
# Rattus norvegicus [30] = assay: Hallucinogenic property was determined in groups of MDMA trained rats and percentage of animals disrupted was reported at a dose 1.17 (umol/kg), (number of animals = 8); format: functional
# T1 sequence (P31652 whole entry): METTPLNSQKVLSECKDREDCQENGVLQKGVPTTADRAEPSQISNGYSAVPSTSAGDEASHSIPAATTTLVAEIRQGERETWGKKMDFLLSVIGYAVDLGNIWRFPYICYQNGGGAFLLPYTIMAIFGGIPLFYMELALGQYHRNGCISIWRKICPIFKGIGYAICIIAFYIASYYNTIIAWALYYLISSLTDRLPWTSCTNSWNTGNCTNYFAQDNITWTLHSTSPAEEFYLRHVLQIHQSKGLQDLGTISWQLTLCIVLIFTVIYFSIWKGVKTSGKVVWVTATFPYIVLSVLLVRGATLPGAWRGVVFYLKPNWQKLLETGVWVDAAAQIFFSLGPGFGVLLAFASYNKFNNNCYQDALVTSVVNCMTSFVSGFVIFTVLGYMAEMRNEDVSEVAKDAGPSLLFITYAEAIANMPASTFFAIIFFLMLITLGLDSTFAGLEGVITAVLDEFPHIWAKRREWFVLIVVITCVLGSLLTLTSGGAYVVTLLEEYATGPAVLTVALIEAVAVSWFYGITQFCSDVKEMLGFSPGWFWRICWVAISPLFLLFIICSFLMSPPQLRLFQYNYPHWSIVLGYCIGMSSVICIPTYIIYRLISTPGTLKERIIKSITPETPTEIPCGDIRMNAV
structure (smiles),measurement,setting,value
NC1Cc2cc3c(cc2C1)OCO3,SDL,Rattus norvegicus [1],38%
same,Monoamine level,Rattus norvegicus [2],130 pg/mg
same,Monoamine level,Rattus norvegicus [3],473 pg/mg
same,D,Rattus norvegicus [4],0%
same,Bmax,Rattus norvegicus [5],918 fM/g
same,Monoamine level,Rattus norvegicus [6],193 pg/mg
same,D,Rattus norvegicus [7],20%
same,Monoamine level,Rattus norvegicus [8],330 pg/mg
same,Monoamine level,Rattus norvegicus [9],273 pg/mg
same,Monoamine level,Rattus norvegicus [10],187 pg/mg
same,SDL,Rattus norvegicus [11],25%
same,D,Rattus norvegicus [12],50%
same,Bmax,Rattus norvegicus [13],675 fM/g
same,SDL,Rattus norvegicus [14],50%
same,D,Rattus norvegicus [15],27%
same,SDL,Rattus norvegicus [16],100%
same,Kd,[17],0.127 nM
same,D,Rattus norvegicus [18],20%
same,SDL,Rattus norvegicus [19],13%
same,Monoamine level,Rattus norvegicus [20],395 pg/mg
same,Monoamine level,Rattus norvegicus [21],459 pg/mg
same,D,Rattus norvegicus [22],91%
same,SDL,Rattus norvegicus [23],13%
same,Monoamine level,Rattus norvegicus [24],329 pg/mg
same,D,Rattus norvegicus [25],10%
same,SDL,Rattus norvegicus [26],50%
same,SDL,Rattus norvegicus [27],63%
same,Kd,[28],0.104 nM
same,D,Rattus norvegicus [29],47%
same,D,Rattus norvegicus [30],0%
